Earlier results in paper PMC5862601 (Oncotarget, 2018).
Like-named read-outs stand apart in the source and are kept apart here.

Legend:
[1] = system: isolated perfused mouse heart; conditions: A2B knockout vs wildtype mice, ref [51]; cited from earlier work
[2] = system: HEK293 (native) cells, A2B ≥ A2A; conditions: cited from earlier work
[3] = system: Breast cancer cell line MDA-MB-231; parameters: method as in Panjehpour M, et al. Br J Pharmacol. 2005; 145: 211-218. [25]; conditions: ref Panjehpour M, et al. Br J Pharmacol. 2005, 145: 211-218. [25]; cited from earlier work
[4] = system: HMEC-1 human microvascular endothelial cell line; parameters: method as in Feoktistov I, et al. Circ Res. 2002; 90:531-538. [21]; conditions: ref Feoktistov I, et al. Circ Res. 2002, 90:531-538. [21]; cited from earlier work
[5] = system: Ovarian cancer cell line OVCAR-3; parameters: method as in Hajiahmadi S, et al. Res Pharm Sci. 2015; 10: 43-51. [24]; conditions: ref Hajiahmadi S, et al. Res Pharm Sci. 2015, 10: 43-51. [24]; cited from earlier work
[6] = system: HUVEC Human Umbilical Vein Endothelial Cells; parameters: method as in Feoktistov I, et al. Circ Res. 2002; 90: 531-538. [21]; conditions: HUVEC (A2A > A2B); ref Feoktistov I, et al. Circ Res. 2002; 90: 531-538. [21]; cited from earlier work
A2B receptor (CHO-A2B) = conditions: ref De Filippo E, et al. Purinergic Signal. 2016;12: 313-329. [11]; cited from earlier work
Jurkat-T cells = conditions: cited from earlier work; for EC50: Jurkat-T, ref Van der Ploeg et al. Naunyn Schmiedeberg’s Arch Pharmacol. 1996, 353: 250-260. [22]
[7] = system: Ovarian cancer cell line Caov-4; parameters: method as in Hajiahmadi S, et al. Res Pharm Sci. 2015; 10: 43-51. [24]; conditions: ref Hajiahmadi S, et al. Res Pharm Sci. 2015, 10: 43-51. [24]; cited from earlier work
[8] = system: Ovarian cancer cell line SKOV-3; parameters: method as in Hajiahmadi S, et al. Res Pharm Sci. 2015; 10: 43-51. [24]; conditions: ref Hajiahmadi S, et al. Res Pharm Sci. 2015, 10: 43-51. [24]; cited from earlier work
[9] = system: Human prostatic carcinoma cells PC-3; parameters: method as in Wei Q, et al. Purinergic Signal. 2013; 9: 271-280. [23]; conditions: ref Wei Q, et al. Purinergic Signal. 2013, 9: 271-280. [23]; cited from earlier work
[10] = system: T24 human bladder carcinoma cells; conditions: cited from earlier work; for EC50: T24 human bladder carcinoma
[11] = system: PC12 (rat) phaeochromocytoma cells; conditions: cited from earlier work
[12] = system: prostate cancer cell lines (A2B > A2A); conditions: three prostate cancer cell lines (A2B > A2A); ref [13]; cited from earlier work
HEK-A2B cells, A2B ≥ A2A = conditions: cited from earlier work
[13] = system: human ovarian cancer cell lines (A2B > A2A); conditions: three human ovarian cancer cell lines (A2B > A2A); ref [12]; cited from earlier work
[14] = ref Gao Z, et al. Biochem Pharmacol. 2014, 90: 297-306. [17]
[15] = ref van der Ploeg et al. Naunyn Schmiedeberg’s Arch Pharmacol. 1996, 353: 250-260. [22], read-out: EC50

Row | SMILES | increase in coronary flow [1] | EC50 [3] [µM] | EC50 [4] [µM] | EC50 [5] [µM] | EC50 [6] [µM] | EC50 (Jurkat-T cells) [µM] | EC50 [7] [µM] | EC50 [8] [µM] | EC50 [9] [µM] | EC50 [11, 15] [µM] | other results
1 | CCNC(=O)[C@H]1O[C@@H](n2cnc3c(N)nc(NCCc4ccc(CCC(=O)O)cc4)nc32)[C@H](O)[C@@H]1O [CGS-21680, (2-p-[2-carboxyethyl]phenethylamino)-5´-N-ethylcarboxamidoadenosine] | increased coronary flow in A2B knockout (KO) mice to a significantly higher degree than in wildtype (WT) mice | > 10 | > 100 | > 100 | 0.469 | > 100 | > 100 | > 100 | > 10 | 0.09 | EC50 ([2]; ref Cooper J, et al. Br J Pharmacol. 1997, 122: 546-550. [18]): > 30 µM; EC50 [2, 14]: > 10 µM; EC50 (A2B receptor (CHO-A2B)): 31.1 µM; activity in cAMP assays (Jurkat-T cells; Jurkat-T cells (A2B ≥ A2A), ref [47]): nearly inactive; induction of cAMP accumulation ([10]; T24 (A2B > A2A), ref [45]): inactive; EC50 [10, 14]: > 10 µM; EC50 ([10]; ref Phelps PT, et al. Eur J Pharmacol. 2006, 536: 28-37. [20]): > 10 µM; EC50 ([11]; ref Hide I, et al. Mol Pharmacol. 1992, 41: 352-359. [26], read-out: EC50): 0.064 µM
2 | CCNC(=O)[C@H]1O[C@@H](n2cnc3c(N)ncnc32)[C@H](O)[C@@H]1O [NECA, 5′-N-ethylcarboxamidoadenosine] | increased coronary flow in A2B knockout (KO) mice to a significantly higher degree than in wildtype (WT) mice | 1.13 | 14 | 6.6 | 0.95 | 5.8 | 9.12 | 18 | 0.469 | 0.2 | induction of cAMP accumulation [12]: concentration-dependently induced cAMP accumulation; EC50 (HEK-A2B cells, A2B ≥ A2A; [14]): 0.021 µM; EC50 (HEK-A2B cells, A2B ≥ A2A; ref Hinz S, et al. J Pharmacol Exp Ther. 2014, 3: 427-436. [15]): 0.2 µM; EC50 (HEK-A2B cells, A2B ≥ A2A; ref Linden J, et al. Mol Pharmacol. 1999, 56: 705-713. [19]): 0.0286 µM; induction of cAMP accumulation [13]: concentration-dependently induced cAMP accumulation; EC50 ([11]; high-affinity component, ref Hide I, et al. Mol Pharmacol. 1992, 41: 352-359. [26], read-out: EC50, biphasic: KH): 0.066 µM; EC50 ([11]; low-affinity component, ref Hide I, et al. Mol Pharmacol. 1992, 41: 352-359. [26], read-out: EC50, biphasic: KL): 7.5 µM
